In patent US20250304620A1, “ANTIMICROBIAL PEPTIDE AND APPLICATION THEREOF” (priority 2023, published 2025):
Marks after values point to notes of the source that are not given here. Non-standard residues stand in square brackets, D forms with d. Residues, ends and D or L forms follow the SMILES beside them. d2Nal = N[C@H](Cc1ccc2ccccc2c1)C(=O)O

Key:
[1] = system: carbapenem-resistant Pseudomonas aeruginosa (CRPA); type: cell-based; conditions: carbapenem-resistant (CRPA)
Procedure, shortened: (§1)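 Broth serial twofold dilution per CLSI standards, run 5 times in parallel, gave MIC values for the peptides against clinically common resistant strains.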

[2] = system: carbapenem-resistant Escherichia coli (CREC); type: cell-based; conditions: carbapenem-resistant (CREC)
Procedure, shortened: as §1

[3] = system: carbapenem-resistant Klebsiella pneumoniae (CRKP); type: cell-based; conditions: carbapenem-resistant (CRKP)
Procedure, shortened: as §1

[4] = system: Methicillin-resistant Staphylococcus aureus (MRSA); type: cell-based; conditions: Methicillin-resistant
Procedure, shortened: as §1

[5] = system: vancomycin-resistant Enterococcus (VRE); type: cell-based
Procedure, shortened: as §1

[6] = system: Shigella flexneri ATCC 12022; assay: MIC against clinically common bacterial strain; type: cell-based
Procedure, shortened: (§2)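 Susceptibility testing used the CLSI-standard microdilution method with twofold serial dilutions of the antimicrobial peptides to give MIC values, replicated 5 times in parallel.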

[7] = system: Pseudomonas aeruginosa ATCC 27853; assay: Injectable formulations on mice infected with peritonitis; type: in vivo, ICR mice; conditions: 1 mg/kg via tail vein, twice a day for 3 days, n = 10
Procedure, shortened: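 Survival readout: deaths and survival time tracked for 14 d. Treatment was tail-vein injection by body weight, twice a day for 3 consecutive days, starting right after intraperitoneal challenge with 0.2 mL of 1×10^9 CFU/mL P. aeruginosa ATCC 27853 in male and female ICR mice.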

[8] = system: Trichophyton ATCC MYA-4438; type: cell-based
Procedure, shortened: as §2

[9] = system: Staphylococcus aureus ATCC 25923; type: cell-based
Procedure, shortened: as §2

[10] = system: Pseudomonas aeruginosa ATCC 27853; type: cell-based
Procedure, shortened: as §2

Candida utilis ATCC 9950 = type: cell-based
Procedure, shortened: as §2

Enterococcus ATCC 29212 = type: cell-based
Procedure, shortened: as §2

[11] = system: Candida glabrata ATCC 15126; type: cell-based
Procedure, shortened: as §2

[12] = system: Corynebacterium ATCC 7715; type: cell-based
Procedure, shortened: as §2

[13] = system: Candida tropicalis ATCC 750; type: cell-based
Procedure, shortened: as §2

[14] = system: Escherichia coli ATCC 25922; type: cell-based
Procedure, shortened: as §2

[15] = system: Serratia marcescens ATCC 29021; type: cell-based
Procedure, shortened: as §2

[16] = system: Salmonella typhimurium ATCC 14028; type: cell-based
Procedure, shortened: as §2

[17] = system: Candida albicans ATCC MYA-2876; type: cell-based
Procedure, shortened: as §2

[18] = system: Klebsiella pneumoniae ATCC 700603; type: cell-based
Procedure, shortened: as §2

[19] = system: Bacillus subtilis ATCC 6633; type: cell-based
Procedure, shortened: as §2

Candida krusei ATCC 6258 = type: cell-based
Procedure, shortened: as §2

[20] = system: Staphylococcus aureus (NRS 384); assay: microbe, parasite or virus in culture; type: cell-based; conditions: NRS 384
Procedure, shortened: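 MICs were read against S. aureus strain NRS 384 using twofold serial dilution by CLSI microdilution rules. Levofloxacin and Cbf-K16 were the reference controls, and the test was repeated 5 times in parallel.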

[21] = Serum stability assay (residual level by RP-HPLC); conditions: human
[22] = system: Staphylococcus aureus (NRS 384); conditions: NRS 384, 3 h
Protocol: Trypsin (250 U/mg, pH=8.0) and AMPs (LV-1 to LV-30) were mixed in a ratio of 1:10 (w/w) and added to a reaction buffer (0.2 M sodium phosphate, 1 mM CaCl2), pH 7.5), and then incubated at 37° C. for 3 h.

CC(=O)N[C@H](CCCNC(=N)N)C(=O)N[C@H](CCCNC(=N)N)C(=O)N[C@H](CC(C)C)C(=O)N[C@H](CC(C)C)C(=O)N[C@H](Cc1ccc2ccccc2c1)C(=O)N[C@H](CCCNC(=N)N)C(=O)N[C@H](CC(C)C)C(=O)N[C@H](CCCCN)C(=O)N[C@H](Cc1ccc2ccccc2c1)C(=O)N[C@H](CCCNC(=N)N)C(=O)N[C@H](CCCCN)C(N)=O [LV-21] (Ac-[dR][dR][dL][dL][d2Nal][dR][dL][dK][d2Nal][dR][dK]-NH2)
4 µg/mL: MIC CRPA [1] | MIC MRSA [4] | MIC Trichophyton ATCC MYA-4438 [8] | MIC Enterococcus ATCC 29212 (Enterococcus ATCC 29212) | MIC Corynebacterium ATCC 7715 [12] | MIC Serratia marcescens ATCC 29021 [15] | MIC Klebsiella pneumoniae ATCC 700603 [18] | MIC Candida krusei ATCC 6258 (Candida krusei ATCC 6258)
97.9%: remaining at 12 h, 0.91 mg/mL [21]
9.2*** Days: Average survival times (Days) ([7]; observed for 14 d)
16 µg/mL: MIC Candida glabrata ATCC 15126 [11]
2 Mouse: Number of mice that died on each day after infection: day 1 [7] | Number of mice that died on each day after infection: day 3 [7]
8 µg/mL: MIC Candida utilis ATCC 9950 (Candida utilis ATCC 9950) | MIC Candida tropicalis ATCC 750 [13] | MIC Candida albicans ATCC MYA-2876 [17]
2 µg/mL: MIC CREC [2] | MIC CRKP [3] | MIC VRE [5] | MIC Shigella flexneri ATCC 12022 [6] | MIC Pseudomonas aeruginosa ATCC 27853 [10] | MIC Escherichia coli ATCC 25922 [14] | MIC Salmonella typhimurium ATCC 14028 [16] | MIC Bacillus subtilis ATCC 6633 [19]
0 Mouse: Number of mice that died on each day after infection: day 2 [7] | Number of mice that died on each day after infection: day 4 [7] | Number of mice that died on each day after infection: day 5 [7]
1 µg/mL: MIC Staphylococcus aureus ATCC 25923 [9] | MIC against Staphylococcus aureus (NRS 384) [20] | Trypsin MIC [22]
